Laboratory results taken from publication PMC9694334, “Synthesis and Biological Evaluation of a Fused Structure of Indolizine and Pyrrolo[1,2-c]pyrimidine: Identification of Its Potent Anticancer Activity against Liver Cancer Cells” (Pharmaceuticals, 2022).

Columns and labels:
HaCaT cells = experiment: Cell viability assay (MTS) in HaCaT cells; assay type: cell-based, human; details: Homo sapiens, mean, n = 5
Protocol: (§1) HepG2, Huh7, H1299, HT29, AGS and A549 cells were purchased from the Korean Cell Line Bank (Seoul, Korea) and HaCaT cells were obtained from Prof. Sohee Kwon (Yonsei University, Korea). Liver cancer cells (HepG2), human keratinocyte cells (HaCaT), and lung cancer cells (A549) were grown in DMEM high-glucose medium, liver cancer cells (Huh7) and non-small cell lung cancer cells (H1299) were grown in RPMI 1640, and gastric cancer cells (AGS) were grown in Coon’s modified F12 medium. All media were supplemented with 10% FBS, 100 Units/mL penicillin, and 100 μg/mL streptomycin. All cells were incubated at 37 °C, 5% CO2 and 95% humidity.
(§2) Cell viability assay was conducted using Cell Titer 96® AQueous One Solution Cell proliferation Assay kit (Promega, Madison, WI, USA). Five cancer cells and HaCaT cells were plated in 96-well microplates with growth medium for 24 h. When cell confluency reached ~30%, cells were treated with DMSO (vehicle) and test compounds. The medium and test compounds were replaced every 24 h. To measure cell viability, the cells were incubated with MTS solution for 1 h. The absorbance was measured by using Infinite M200 microplate reader (Tecan, Männedorf, Switzerland) at 490 nm.
(§3) Figure 2 Effect of 5r on cell viability in HepG2, Huh7, AGS, H1299, A549, HaCaT, NIH3T3, and HEK293T cells. (A–H) HepG2, Huh7, AGS, H1299, A549, HaCaT, NIH3T3, and HEK293T cells were cultured with 5r at the indicated concentrations for 72 h, and medium was replaced every 24 h with freshly added 5r. Cell viability was measured by MTS analysis (mean ± S.D., n = 5). * p < 0.05, ** p < 0.01, *** p < 0.001.

Huh7 cells = experiment: Cell viability assay (MTS) in Huh7 cells; assay type: cell-based; details: Homo sapiens, Huh-7, mean, n = 5, 72 h for 5r (Figure 2)
Protocol: as §1, §2, §3

HepG2 cells = experiment: Cell viability assay (MTS) in HepG2 cells; assay type: cell-based; details: mean; for IC50: Homo sapiens, MTS, n = 5, 72 h for 5r (Figure 2); for % Inhibition of Cell Viability at 10 μM HepG2: n = 3
Protocol: as §1, §2, §3

HT29 cells = experiment: Cell viability assay (MTS) in HT29 cells; assay type: cell-based; details: mean, n = 3
Protocol: as §1, §2

A549 cells = experiment: Cell viability assay (MTS) in A549 cells; assay type: cell-based; details: 10 μM, mean, n = 3
Protocol: as §1, §2, §3

H1299 cells = experiment: Cell viability assay (MTS) in H1299 cells; assay type: cell-based; details: 10 μM, mean, n = 3
Protocol: as §1, §2, §3

AGS cells = experiment: Cell viability assay (MTS) in AGS cells; assay type: cell-based; details: 10 μM, mean, n = 3
Protocol: as §1, §2, §3

| Structure (SMILES) | IC50 (HaCaT cells) | IC50 (Huh7 cells) | IC50 (HepG2 cells) | % Inhibition of Cell Viability at 10 μM HT29 (HT29 cells) | % Inhibition of Cell Viability at 10 μM A549 (A549 cells) | % Inhibition of Cell Viability at 10 μM H1299 (H1299 cells) | % Inhibition of Cell Viability at 10 μM AGS (AGS cells) | % Inhibition of Cell Viability at 10 μM HepG2 (HepG2 cells) |
| --- | --- | --- | --- | --- | --- | --- | --- | --- |
| COc1cccc(-c2nc3c(c(C#N)c4ccccn43)c3cccn23)c1 [Compound 5q, 5-(3-Methoxyphenyl)pyrrolo[1′,2′:1,6]pyrimido[5,4-b]indolizine-12-carbonitrile] | 8.3 µM | 1.45 µM | 1.31 µM | – | – | – | – | – |
| N#Cc1c2c3cccn3c(-c3ccccc3Cl)nc2n2ccccc12 [Compound 5u, 5-(2-Chlorophenyl)pyrrolo[1′,2′:1,6]pyrimido[5,4-b]indolizine-12-carbonitrile] | 11.5 µM | 3.95 µM | 2.1 µM | – | – | – | – | – |
| COc1ccc(-c2nc3c(c(C#N)c4ccccn43)c3cccn23)cc1 [Compound 5b, 5-(4-Methoxyphenyl)pyrrolo[1′,2′:1,6]pyrimido[5,4-b]indolizine-12-carbonitrile] | – | – | – | <25% | 25.5% | 79.1% | <25% | 57.0% |
| N#Cc1c2c3cccn3c(-c3cc4ccccc4[nH]3)nc2n2ccccc12 [Compound 5l, 5-(1H-Indol-2-yl)pyrrolo[1′,2′:1,6]pyrimido[5,4-b]indolizine-12-carbonitrile] | – | – | – | 58.6% | 46.9% | 62.3% | <25% | 99.2% |
| N#Cc1c2c3cccn3c(-c3ccc(Br)cc3)nc2n2ccccc12 [Compound 5i, 5-(4-Bromophenyl)pyrrolo[1′,2′:1,6]pyrimido[5,4-b]indolizine-12-carbonitrile] | – | – | – | <25% | 36.7% | 92.1% | <25% | 87.4% |
| COc1cc(OC)cc(-c2nc3c(c(C#N)c4ccccn43)c3cccn23)c1 [Compound 5d, 5-(3,5-Dimethoxyphenyl)pyrrolo[1′,2′:1,6]pyrimido[5,4-b]indolizine-12-carbonitrile] | – | – | – | <25% | <25% | 83.4% | <25% | 57.3% |
| COC(=O)c1ccc(-c2nc3c(c(C#N)c4ccccn43)c3cccn23)cc1 [Compound 5j, Methyl 4-(12-cyanopyrrolo[1′,2′:1,6]pyrimido[5,4-b]indolizin-5-yl)benzoate] | – | – | – | <25% | <25% | 52.8% | <25% | 42.2% |
| N#Cc1c2c3cccn3c(-c3cccc4ccccc34)nc2n2ccccc12 [Compound 5g, 5-(Naphthalen-1-yl)pyrrolo[1′,2′:1,6]pyrimido[5,4-b]indolizine-12-carbonitrile] | – | – | – | <25% | <25% | 82.8% | <25% | 49.2% |
| N#Cc1c2c3[nH]c4ccccc4c3c(-c3ccccc3)nc2n2ccccc12 [Compound 10a, 7-Phenyl-12H-indolizino[2′,3′:5,6]pyrido[4,3-b]indole-13-carbonitrile] | – | – | – | 61.2% | 45.9% | 68.8% | 48.4% | <25% |
| N#Cc1c2c3cccn3c(-c3cccc(O)c3)nc2n2ccccc12 [Compound 5s, 5-(3-Hydroxyphenyl)pyrrolo[1′,2′:1,6]pyrimido[5,4-b]indolizine-12-carbonitrile] | 8.49 µM | 4.02 µM | 2.94 µM | – | – | – | – | – |
| N#Cc1c2c3cccn3c(-c3ccccc3F)nc2n2ccccc12 [Compound 5t, 5-(2-Fluorophenyl)pyrrolo[1′,2′:1,6]pyrimido[5,4-b]indolizine-12-carbonitrile] | 6.78 µM | 1.92 µM | 1.58 µM | – | – | – | – | – |
| N#Cc1c2c3cccn3c(-c3ccco3)nc2n2ccccc12 [Compound 5m, 5-(Furan-2-yl)pyrrolo[1′,2′:1,6]pyrimido[5,4-b]indolizine-12-carbonitrile] | – | – | – | <25% | <25% | 81.9% | <25% | 64.0% |
| N#Cc1c2c3[nH]c4ccccc4c3c(-c3ccc(Br)cc3)nc2n2ccccc12 [Compound 10c, 7-(4-Bromophenyl)-12H-indolizino[2′,3′:5,6]pyrido[4,3-b]indole-13-carbonitrile] | – | – | – | <25% | <25% | <25% | <25% | 39.6% |
| COc1ccc(-c2nc3c(c(C#N)c4ccccn43)c3[nH]c4ccccc4c23)cc1 [Compound 10b, 7-(4-Methoxyphenyl)-12H-indolizino[2′,3′:5,6]pyrido[4,3-b]indole-13-carbonitrile] | – | – | – | <25% | <25% | <25% | <25% | <25% |
| N#Cc1c2c3cccn3c(-c3ccc4ccccc4c3)nc2n2ccccc12 [Compound 5f, 5-(Naphthalen-2-yl)pyrrolo[1′,2′:1,6]pyrimido[5,4-b]indolizine-12-carbonitrile] | – | – | – | <25% | <25% | 88.4% | <25% | 92.5% |
| N#Cc1c2c3cccn3c(-c3ccc(Cl)cc3)nc2n2ccccc12 [Compound 5h, 5-(4-Chlorophenyl)pyrrolo[1′,2′:1,6]pyrimido[5,4-b]indolizine-12-carbonitrile] | – | – | – | 26.9% | 52.5% | 80.0% | 31.0% | 88.4% |
| N#Cc1c2c3cccn3cnc2n2ccccc12 [Compound 8, Pyrrolo[1′,2′:1,6]pyrimido[5,4-b]indolizine-12-carbonitrile] | – | – | – | <25% | <25% | <25% | <25% | <25% |
| COc1cc(-c2nc3c(c(C#N)c4ccccn43)c3cccn23)cc(OC)c1OC [Compound 5e, 5-(3,4,5-Trimethoxyphenyl)pyrrolo[1′,2′:1,6]pyrimido[5,4-b]indolizine-12-carbonitrile] | – | – | – | <25% | 25.3% | 89.0% | <25% | 37.7% |
| N#Cc1c2c3cccn3c(-c3ccccc3)nc2n2ccccc12 [Compound 5a, 5-Phenylpyrrolo[1′,2′:1,6]pyrimido[5,4-b]indolizine-12-carbonitrile] | – | – | – | <25% | <25% | 81.5% | <25% | 85.0% |
| N#Cc1c2c3cccn3c(-c3ccccn3)nc2n2ccccc12 [Compound 5k, 5-(Pyridin-2-yl)pyrrolo[1′,2′:1,6]pyrimido[5,4-b]indolizine-12-carbonitrile] | – | – | – | 28.8% | 29.0% | 83.8% | <25% | 90.6% |
| COc1ccc(-c2nc3c(c(C#N)c4ccccn43)c3cccn23)cc1OC [Compound 5c, 5-(3,4-Dimethoxyphenyl)pyrrolo[1′,2′:1,6]pyrimido[5,4-b]indolizine-12-carbonitrile] | – | – | – | 44.0% | 47.1% | 94.0% | 56.0% | 76.7% |
